The test system of series [1] is Hepatitis A virus (HAV) strain HM-175. Put plainly: Entry assay, HAV. It is filed as cell-based. Conditions: entry: cells with virus 1 h at 4 °C, then peptide 80 µM 1 h 37 °C, mean ± SD. As to the method: (§1) Four sets of experiments were performed to suppose the effect of RiLK1 and RiLK3 on HAV and MNV-1 [29]. To this aim, 80 µM solutions of the two peptides and HAV and MNV-1 suspensions at a final concentration of 4.7 ± 0.2 log TCID50/mL and 4.5 ± 0.2 log TCID50/mL, respectively, were used in the following experiments: • i) A virus pre-treatment assay to assess the direct interaction between the virus and peptide: the incubation of the peptide with viral suspension for 1 h at room temperature was carried out, followed by its incubation on cells for 1 h at 37 °C. Then, cell monolayers were washed twice with PBS and incubated with 500 µL DMEM/MEM supplemented with 2% of FBS to determine the TCID50/mL. • ii) A cell pre-treatment assay to assess the interaction between the peptide and cells before the viral infection: cell monolayers were preincubated with 100 µL of peptide solution for 1 h at 37 °C, followed by the removal of the peptide, addition to cells of viral suspensions for 1 h at 37 °C, washing step, and culture with 2% FBS DMEM/MEM. • iii) An attachment assay to assess the possible action of the peptide at the stage of virus attachment to cells: cell monolayers were incubated with 100 µL of a suspension containing both the peptide and virus and were incubated for 1 h at 4 °C. Subsequently, the cell monolayers were washed with PBS and incubated for 1 h at 37 °C with a culture medium followed by a washing step and the addition of culture with 2% FBS DMEM/MEM. • iv) An entry assay to assess the possible action of the peptide at the stage of virus internalization into cells: cell monolayers were incubated with 100 µL of the viral suspension for 1 h at 4 °C, followed by the addition of the peptide and incubation for 1 h at 37 °C. Cells were then washed with PBS, and 2% FBS DMEM/MEM was finally added.
(§2) Untreated viral suspensions and peptide solutions, incubated at the same conditions, were used as controls.
(§3) For each treatment, the average and standard deviation of the triplicate analyses were calculated. The virucidal effects of AMPs was assessed by calculating the log reduction value (LRV), i.e., the difference between the infectious titer (log-transformed) of untreated versus treated samples. The statistical significance of differences between treated and untreated samples was determined through one-way analysis of variance (ANOVA) with Bonferroni post hoc comparisons, with a significance level of p < 0.05 (GraphPad Prism v9.5.0, software San Diego, CA, USA).

In series [2] the test system is Murine norovirus strain 1 (MNV-1). Put plainly: Cell pre-treatment assay, MNV-1. To be noted: cell pre-treatment: cells with peptide 80 µM 1 h 37 °C, peptide removed, then virus 1 h 37 °C, mean ± SD. It is filed as cell-based. On the procedure:
as §1, §2, §3

Series [3] relates to Hepatitis A virus (HAV) strain HM-175. As to the kind of experiment: Cell pre-treatment assay, HAV. Type of series: cell-based. Conditions: cell pre-treatment: cells with peptide 80 µM 1 h 37 °C, peptide removed, then virus 1 h 37 °C, mean ± SD. On the procedure:
as §1, §2, §3

Series [4] relates to Murine norovirus strain 1 (MNV-1). Put plainly: Virus pre-treatment assay, MNV-1. It is filed as cell-based. To be noted: virus pre-treatment: peptide 80 µM with virus 1 h at RT, mean ± SD; for Viral Titre: then on RAW 264.7 cells 1 h 37 °C. On the procedure: as §1, with “Subsequently, the cell monolayers were washed with PBS and incubated for 1 h at 37 °C with a culture medium followed by a washing step and the addition of culture with 2% FBS DMEM/MEM. • iv) An entry assay to assess the possible action of the peptide at the stage of virus internalization into cells: cell monolayers were incubated with 100 µL of the viral suspension for 1 h at 4 °C, followed by the addition of the peptide and incubation for 1 h at 37 °C. Cells were then washed with PBS, and 2% FBS DMEM/MEM was finally added.” left out
as §3

For series [5] the following is noted: cited from earlier work; for structural stability: pH 2; for conformation in mimicked membrane solutions (self-aggregation): ref [41],[42],[43],[44],[45]. On the procedure:
In this context, to acquire important information on how the conformational properties of peptides might influence the structure–function relationships and their distinct membrane interaction profiles, the propensity of the new peptides, RiLK30 and AVP2, to adopt a defined secondary structure and to undergo conformational changes were examined by circular dichroism and fluorescence spectroscopy. These analyses were performed in the presence of a negatively charged SDS that is commonly used as a biomimetic membrane model to study the structural features of membranotropic molecules. In previous ...

The test system of series [6] is Murine norovirus strain 1 (MNV-1). Put plainly: Attachment assay, MNV-1. Type of series: cell-based. To be noted: attachment: cells with peptide 80 µM and virus together 1 h at 4 °C, mean ± SD. On the procedure:
as §1, §2, §3

In series [7] the test system is Hepatitis A virus (HAV) strain HM-175. As to the kind of experiment: Attachment assay, HAV. Type of series: cell-based. To be noted: attachment: cells with peptide 80 µM and virus together 1 h at 4 °C, mean ± SD. On the procedure:
as §1, §2, §3

Series [8] is classed as physicochemical. As to the method:
Circular Dichroism (CD) analysis was performed by a Jasco J-810 spectropolarimeter. The samples were loaded into a quartz cuvette of 0.1 cm path length (Hellma Analytics), and the spectra were recorded in the 195–250 nm range at a scan speed of 20 nm/min, averaging 5 scans. CD experiments were carried out in 10 mM Tris-HCl buffer, pH 7.0, as a function of SDS concentrations (3, 50, and 150 mM) at a peptide concentration of 50 µM. The folding kinetic measurements of the peptides were performed after the addition of SDS (50 mM) to each sample (50 µM in 10 mM Tris-HCl, pH 7.0) up to 24 h of incubation. For thermal stability analyses, the peptides were prepared to a final concentration of 50 μM in 10 mM Tris-HCl, pH 7.0, and then they were incubated at 4 and 25 °C up to 48 h before acquiring the CD spectra in the presence of 50 mM SDS. A blank spectrum of a sample containing all components except the peptide was acquired for the baseline correction of the CD spectra of the peptide. The mean residue ellipticity ([θ], deg cm^2 dmol^−1) was obtained by the equation [θ] = 100 θ/cnl, where θ is the ellipticity (mdeg), c is the peptide concentration (mM), n is the number of residues, and l is the path length (cm).
Tryptophan (Trp) fluorescence emission spectra were recorded at 25 °C on a Shimadzu RF-6000 spectrofluorometer (Kyoto, Japan), with both excitation and emission slit widths set at 5 nm. The intrinsic Trp was excited at a wavelength of 280 nm and the emission was monitored between 300 and 400 nm. Fluorescence measurements were carried out in 10 mM Tris-HCl buffer, pH 7.0, as a function of SDS concentrations (3, 50, and 150 mM) at a peptide concentration of 50 µM. The folding kinetic experiments of AVP2 and RiLK30 were performed after the addition of SDS (50 mM) to each sample (50 µM concentration in 10 mM Tris-HCl buffer, pH 7.0) up to 24 h of incubation. The effect of temperature on peptide folding was analyzed by dissolving the peptides at a final concentration of 50 µM in 10 mM Tris-HCl buffer, pH 7.0, and incubating them at 4 and 25 °C up to 48 h. The spectra were recorded in the presence of 50 mM SDS.

Several values for one entry are separate records, joined by “and”; a condition that tells them apart may be missing. Identical values can stand only once. Where a SMILES comes first, the peptide text is derived from it.

As for `CC[C@H](C)[C@H](NC(=O)[C@H](CCCNC(=N)N)NC(=O)[C@@H](NC(=O)[C@H](Cc1c[nH]c2ccccc12)NC(=O)[C@H](CCCCN)NC(=O)[C@H](CC(C)C)NC(=O)[C@@H](N)CCCNC(=N)N)C(C)C)C(=O)N[C@@H](Cc1c[nH]c2ccccc12)C(=O)N[C@@H](CCCNC(=N)N)C(=O)N[C@@H](CCCNC(=N)N)C(N)=O` [RiLK1] (H-RLKWVRIWRR-NH2; N-terminus assumed), the LRV in series [1] was 0.1 ± 0.3 logTCID50/mL; in series [2], 0.3 ± 0.4 logTCID50/mL; in series [3] it was 0.1 ± 0.3 logTCID50/mL; in series [6], 1.4 logTCID50/mL and 1.4 ± 0.4 logTCID50/mL; in series [7], 1.4 logTCID50/mL and 1.4 ± 0.4 logTCID50/mL. In addition, the “Viral Titre” value stood at 4.6 ± 0.1 logTCID50/mL in series [1]; 4.2 ± 0.2 logTCID50/mL in series [2]; 4.6 ± 0.1 logTCID50/mL in series [3]; 3.3 ± 0.2 logTCID50/mL in series [4]; 3.1 ± 0.2 logTCID50/mL in series [6]; 3.3 ± 0.2 logTCID50/mL in series [7]. The structural stability result in series [5] is “high structural stability”. The “conformation in mimicked membrane solutions (self-aggregation)” value in series [5] was “higher-ordered self-aggregates”.

Turning to “KLRWVKIWKK-NH2 [RiLK30, newly designed RiLK1 derivative, Arg residues exchanged with Lys and Lys3 with Arg]”, the “thermal (conformational) stability in SDS micellar solution” value in series [8] (pH 7) was “at least 48 h”. Moreover, the “conformational rearrangement over time (CD and fluorescence spectra)” value in series [8] (peptide 50 µM, 10 mM Tris-HCl pH 7.0, SDS 50 mM, 24 h incubation at 37 °C (legend: 25 °C)) is “did not appear to undergo significant changes”. Also, the “self-aggregation (CD in SDS)” value in series [8] (peptide 50 µM, 10 mM Tris-HCl pH 7.0, SDS 3, 50, 150 mM, 25 °C) was “high propensity to self-aggregate”.

In the case of “RLRWVRIWRR-NH2 [RiLK3, RiLK1 analog differing by one amino acid (Lys replaced with Arg), C-terminally amidated]”, the LRV in series [1] is 0.5 ± 0.4 logTCID50/mL; in series [2], 1.0 logTCID50/mL and 1.0 ± 0.3 logTCID50/mL; in series [3] it was 0.9 logTCID50/mL and 0.9 ± 0.4 logTCID50/mL; in series [4] (then on cells 1 h 37 °C), 0 ± 0.3 logTCID50/mL; in series [6], 1.0 logTCID50/mL and 1.0 ± 0.3 logTCID50/mL; in series [7] it was 1.0 logTCID50/mL and 1.0 ± 0.4 logTCID50/mL. Besides, the “Viral Titre” value came to 4.2 ± 0.2 logTCID50/mL in series [1]; 3.5 ± 0.1 logTCID50/mL in series [2]; 3.8 ± 0.2 logTCID50/mL in series [3]; 4.5 ± 0.1 logTCID50/mL in series [4]; 3.5 ± 0.1 logTCID50/mL in series [6]; 3.7 ± 0.2 logTCID50/mL in series [7]. For the same molecule, the structural stability entry in series [5] is “high structural stability”. Further, the “conformation in mimicked membrane solutions (self-aggregation)” value in series [5] is “higher-ordered self-aggregates”.

These data come from PMC11124387, “A Reliable Multifaceted Solution against Foodborne Viral Infections: The Case of RiLK1 Decapeptide” (Molecules, 2024).
